Data as given in BindingDB's records for doi:10.1158/1535-7163.MCT-07-0187 (Burnham Institute For Medical Research, 2007).

The compounds below were run against T1, Fatty acid synthase [2202-2509] (Homo sapiens, UniProt P49327) (assay: Fluorogenic Assay for Detection of FASTE Inhibition). Settings: pH 7.5; 37 °C.
T1 construct: 2202-2509
T1 sequence (P49327 2202-2509): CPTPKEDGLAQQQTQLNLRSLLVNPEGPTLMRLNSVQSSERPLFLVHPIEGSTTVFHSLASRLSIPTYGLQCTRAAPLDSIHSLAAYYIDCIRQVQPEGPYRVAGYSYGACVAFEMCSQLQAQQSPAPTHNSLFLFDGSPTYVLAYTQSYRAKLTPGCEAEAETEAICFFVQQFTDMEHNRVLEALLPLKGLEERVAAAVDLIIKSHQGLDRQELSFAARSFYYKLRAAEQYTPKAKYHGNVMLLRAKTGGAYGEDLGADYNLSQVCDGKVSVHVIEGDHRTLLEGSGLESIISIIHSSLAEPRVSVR
Experimental: The reaction mixture consisted of FAS thioesterase domain (FASTE) in buffer, which was preincubated with test compounds for 30 min. The reaction was initiated by addition of substrate 4-MUH. […] The inhibition constants (Ki) were calculated using the equation of Cheng and Prusoff.
For `Cc1cc(C)cc(N2C(=O)NC(=O)C(=Cc3ccc(-c4ccccc4)o3)C2=O)c1` [(5E)-1-(3,5-dimethylphenyl)-5-[(5-phenylfuran-2-yl)methylidene]-1,3-diazinane-2,4,6-trione], the Ki was 380 nM.
`O=C1NC(=O)N(c2cccc(Br)c2)C(=O)C1=Cc1ccc(-c2ccccc2[N+](=O)[O-])o1` [(5E)-1-(3-bromophenyl)-5-{[5-(2-nitrophenyl)furan-2-yl]methylidene}-1,3-diazinane-2,4,6-trione] was tested, and the Ki was 880 nM.
`O=C1NC(=O)N(Cc2ccccc2)C(=O)/C1=C/c1ccc(-c2ccccc2Cl)o1` [(5E)-1-benzyl-5-{[5-(2-chlorophenyl)furan-2-yl]methylidene}-1,3-diazinane-2,4,6-trione] showed a Ki of 850 nM.
In the case of `Cc1ccccc1N1C(=O)NC(=O)C(=Cc2ccc(-c3ccc(F)cc3)o2)C1=O` [(5E)-5-{[5-(4-fluorophenyl)furan-2-yl]methylidene}-1-(2-methylphenyl)-1,3-diazinane-2,4,6-trione], the Ki is reported as 910 nM.
